The results in this text go back to patent publication US20230135894A1, “MK2 DEGRADERS AND USES THEREOF” (Kymera Therapeutics, Inc., priority 2021, published 2023).

For experiment [1], the target named is T1, MK2 (Homo sapiens, UniProt P49137). As to the kind of experiment: MK2 degradation in human THP-1 monocytic cells (MSD, 24 h). Type of experiment: cell-based. Also noted: endogenous in cells; key to MK2 MSD THP-1 degradation 24 h GMean External Abs DC50: A (<0.001 μM); B (0.001-0.01 μM); C (0.01-0.1 μM); D (>0.1 μM); —: “-”=not tested or inactive. Conditions: for Dmax: THP-1, THP-1 cells; for DC50 / MK2 MSD THP-1 degradation 24 h GMean External Abs DC50: THP-1 cells; for DC50: read-out: MK2 MSD THP-1 degradation 24 h GMean External Abs DC50. In a few lines: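 Readout: residual MK2 protein in THP-1 lysates, measured by MSD electrochemiluminescence sandwich assay after 24 h compound exposure (≤10-point serial dilutions, 0.1% DMSO, 37 °C). Curves normalised between lysis-buffer and DMSO-cell signals; DC50 by 4-parameter logistic fit.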

The target of experiment [2] is T1, MK2. The experiment in a line: MK2 degradation in human SW1353 cells (MSD, 24 h). In kind it is cell-based. More on the design: endogenous in cells; host or cells: SW-1353 (ATCC HTB-94); key to MK2 MSD SW1353 degradation 24 h GMean External Abs DC50: A (<0.001 μM); B (0.001-0.01 μM); C (0.01-0.1 μM); D (>0.1 μM); —: “-”=not tested or inactive. Conditions: for Dmax: read-out: MK2 MSD SW 1353 24 h Dmax %; for DC50: read-out: MK2 MSD SW1353 degradation 24 h GMean External Abs DC50. In a few lines: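 DC50 derived by 4-parameter logistic fit, with DMSO-treated signal as top and lysis-buffer signal as bottom. Remaining MK2 was measured by MSD electrochemiluminescent sandwich assay in RIPA lysates of human SW1353 cells exposed for 24 h at 37 °C to serially diluted compound in 0.1% DMSO.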

Some results are limits rather than exact numbers.

What is called Dmax is the greatest extent of degradation seen. Broadly, the DC50 is the concentration at which degradation of the target reaches its halfway point.

T1 sequence (P49137 whole entry): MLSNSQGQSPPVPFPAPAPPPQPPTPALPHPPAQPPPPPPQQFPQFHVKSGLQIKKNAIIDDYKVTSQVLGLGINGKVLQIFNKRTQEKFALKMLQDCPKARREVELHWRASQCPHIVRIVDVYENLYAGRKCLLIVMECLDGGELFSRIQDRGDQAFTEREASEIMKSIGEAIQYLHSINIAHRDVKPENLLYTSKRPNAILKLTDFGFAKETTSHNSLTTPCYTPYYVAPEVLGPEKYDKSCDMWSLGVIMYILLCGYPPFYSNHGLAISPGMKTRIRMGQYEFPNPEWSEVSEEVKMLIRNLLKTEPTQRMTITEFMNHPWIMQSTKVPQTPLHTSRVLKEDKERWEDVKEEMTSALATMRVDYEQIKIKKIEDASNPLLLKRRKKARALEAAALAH

Turning to `C[C@@H]1CNc2c(sc3ccc4nc(-c5cccc(N6CCN(CCCCCCCCCCc7ccc8c(c7)n(C)c(=O)n8C7CCC(=O)NC7=O)CC6)c5)ccc4c23)C(=O)N1` (some centres unmarked) [Compound I-178], the Dmax in experiment [1] and in experiment [2] was greater than 75% throughout. Besides, the DC50 in experiment [1] and in experiment [2] was 10 to 100 nM in each case.

Regarding `C[C@@H]1CN(C)c2c(sc3ccc4nc(-c5ccc(N6CCN(CC7CCN(c8ccc9c(c8)n(C)c(=O)n9C8CCC(=O)NC8=O)CC7)CC6)nc5)ccc4c23)C(=O)N1` (some centres unmarked) [Compound I-268], the maximal degradation (Dmax) in experiment [1] and in experiment [2] was greater than 75% in each case. Also, the DC50 in experiment [1] and in experiment [2] was 1 to 10 nM in each case.

On to `C[C@@H]1CNc2c(sc3ccc4nc(-c5cccc(N6CCC7(CC6)CN(CCCCCCc6cccc8c6n(C)c(=O)n8C6CCC(=O)NC6=O)C7)c5)ccc4c23)C(=O)N1` (some centres unmarked) [Compound I-293], for which, in experiment [1], the greatest degradation seen (Dmax) is greater than 75% and the half-maximal degradation concentration (DC50) is less than 1 nM. Besides, in experiment [2], the Dmax is greater than 75% and the 50% degradation concentration (DC50) was in the range of 10 to 100 nM.

`Cc1cc(-c2ccc3c(ccc4sc5c(c43)NC[C@@H](C)NC5=O)n2)cnc1N1CCN(CCCc2ccc3c(c2)n(C)c(=O)n3C2CCC(=O)NC2=O)CC1` (some centres unmarked) [Compound I-258]: in experiment [1], the Dmax was less than 50% and the DC50 was in the range of 1 to 10 nM. Further, in experiment [2], the Dmax was in the range of 50 to 75% and the half-maximal degradation concentration (DC50) was 1 to 10 nM.

`C[C@@H]1CNc2c(sc3ccc4nc(-c5ccc(N6CCN(CCCc7cccc8c7n(C)c(=O)n8C7CCC(=O)NC7=O)CC6)cc5)ccc4c23)C(=O)N1` (some centres unmarked) [Compound I-172]: in experiment [1], the Dmax was greater than 75% and the DC50 is less than 1 nM. Also, in experiment [2], the maximal degradation (Dmax) was greater than 75% and the DC50 was less than 1 nM.

With `Cc1cc(-c2ccc3c(ccc4sc5c(c43)NC[C@@H](C)NC5=O)n2)cnc1N1CCN(CC2CCN(c3ccc4c(c3)n(C)c(=O)n4C3CCC(=O)NC3=O)CC2)CC1` (some centres unmarked) [Compound I-272], in experiment [1], the Dmax was greater than 75% and the half-maximal degradation concentration (DC50) is less than 1 nM. Further, in experiment [2], the Dmax is greater than 75% and the half-maximal degradation concentration (DC50) is less than 1 nM.

As to `C[C@@H]1CNc2c(sc3ccc4nc(-c5ccc(N6CCN(CCCc7ccc8c(c7)n(C)c(=O)n8C7CCC(=O)NC7=O)CC6)cc5Cl)ccc4c23)C(=O)N1` (some centres unmarked) [Compound I-251], in experiment [1], the Dmax was less than 50% and the “MK2 MSD THP-1 degradation 24 h GMean External Abs DC50” value is on record as “—”. For the same molecule, in experiment [2], the greatest degradation seen (Dmax) lay in the range of 50 to 75% and the 50% degradation concentration (DC50) was less than 1 nM.

As to `C[C@@H]1CNc2c(sc3ccc4nc(N5CCC(N6CCC7(CCN(c8ccc9c(c8)n(C)c(=O)n9C8CCC(=O)NC8=O)CC7)C6)CC5)ccc4c23)C(=O)N1` (some centres unmarked) [Compound I-410], in experiment [1], the maximal degradation (Dmax) is greater than 75% and the half-maximal degradation concentration (DC50) was less than 1 nM. In experiment [2], the maximal degradation (Dmax) is greater than 75% and the DC50 was less than 1 nM.

For the molecule `Cn1c(=O)n(C2CCC(=O)NC2=O)c2cccc(CCN3CCN(c4ccc(-c5cc(-c6cc7c([nH]6)C6(CC6)CNC7=O)ccn5)c(F)c4)CC3)c21` (centres unmarked) [Compound I-179], in experiment [1], the Dmax is greater than 75% and the “MK2 MSD THP-1 degradation 24 h GMean External Abs DC50” value is “—”. For the same molecule, in experiment [2], the “MK2 MSD SW1353 degradation 24 h GMean External Abs DC50” value is reported as “—” and the greatest degradation seen (Dmax) was greater than 75%.

Consider `Cn1c(=O)n(C2CCC(=O)NC2=O)c2ccc(N3CC(CN4CCN(c5ccc(-c6cc(-c7cc8c([nH]7)C7(CC7)CNC8=O)ccn6)cc5)CC4)C3)cc21` (centres unmarked) [Compound I-189], for which the Dmax in experiment [1] and in experiment [2] was greater than 75% in each case. The 50% degradation concentration (DC50) in experiment [1] and in experiment [2] was less than 1 nM each time.

On to `Cn1c(=O)n(C2CCC(=O)NC2=O)c2cccc(CCCN3CCN(c4ccc(-c5cc(-c6cc7c([nH]6)C6(CC6)CNC7=O)ccn5)cc4)CC3)c21` (centres unmarked) [Compound I-241], for which the figures for the greatest degradation seen (Dmax) in experiment [1] and in experiment [2] were 50 to 75% and greater than 75%, respectively. For the same molecule, the half-maximal degradation concentration (DC50) in experiment [1] and in experiment [2] was 1 to 10 nM throughout.

Take `Cn1c(=O)n(C2CCC(=O)NC2=O)c2ccc(N3CCC(CN4CCN(c5ccc(-c6cc(-c7cc8c([nH]7)C7(CC7)CNC8=O)ccn6)c(F)c5)CC4)CC3)cc21` (centres unmarked) [Compound I-218]: in experiment [1], the maximal degradation (Dmax) was greater than 75% and the DC50 is less than 1 nM. Further, in experiment [2], the maximal degradation (Dmax) was greater than 75% and the half-maximal degradation concentration (DC50) was less than 1 nM.

Consider `C[C@@H]1CNc2c(sc3ccc4nc(-c5cc(Cl)cc(N6CCN(CC7CCN(c8ccc9c(c8)n(C)c(=O)n9C8CCC(=O)NC8=O)CC7)CC6)c5)ccc4c23)C(=O)N1` (some centres unmarked) [Compound I-216], for which, in experiment [1], the greatest degradation seen (Dmax) is greater than 75% and the half-maximal degradation concentration (DC50) is less than 1 nM. In addition, in experiment [2], the Dmax is greater than 75% and the half-maximal degradation concentration (DC50) lay in the range of 1 to 10 nM.

`C[C@@H]1CN(C)c2c(sc3ccc4nc(-c5ccc(N6CCN(CC7CN(c8ccc9c(c8)n(C)c(=O)n9C8CCC(=O)NC8=O)C7)CC6)nc5)ccc4c23)C(=O)N1` (some centres unmarked) [Compound I-412]: the Dmax in experiment [1] and in experiment [2] was greater than 75% in each case. Further, the 50% degradation concentration (DC50) in experiment [1] and in experiment [2] was less than 1 nM in each case.

Take `C[C@@H]1CNc2c(sc3ccc4nc(-c5ccc(N6CCN(C[C@H]7CCN(c8ccc9c(c8)n(C)c(=O)n9C8CCC(=O)NC8=O)C7)CC6)cc5)ccc4c23)C(=O)N1` (some centres unmarked) [Compound I-195]: in experiment [1], the greatest degradation seen (Dmax) is greater than 75% and the DC50 was less than 1 nM. In experiment [2], the Dmax was greater than 75% and the DC50 was less than 1 nM.

Take `C[C@@H]1CNc2c(sc3ccc4nc(-c5cncc(C6CCN(CC7CCN(c8ccc9c(c8)n(C)c(=O)n9C8CCC(=O)NC8=O)CC7)CC6)c5)ccc4c23)C(=O)N1` (some centres unmarked) [Compound I-165]: in experiment [1], the Dmax was greater than 75% and the DC50 was less than 1 nM. For the same molecule, in experiment [2], the Dmax was greater than 75% and the 50% degradation concentration (DC50) was less than 1 nM.

Turning to `C[C@@H]1CNc2c(sc3ccc4nc(-c5ccc(N6CCN(CC7CN(c8cccc9c8n(C)c(=O)n9C8CCC(=O)NC8=O)C7)CC6)nc5)ccc4c23)C(=O)N1` (some centres unmarked) [Compound I-245], in experiment [1], the Dmax is greater than 75% and the DC50 is less than 1 nM. For the same molecule, in experiment [2], the Dmax is greater than 75% and the DC50 is less than 1 nM.

Consider `CCc1cc(-c2ccc3c(ccc4sc5c(c43)NC[C@@H](C)NC5=O)n2)cc(N2CCN(CC3CCN(c4ccc5c(c4)n(C)c(=O)n5C4CCC(=O)NC4=O)CC3)CC2)c1` (some centres unmarked) [Compound I-233], for which, in experiment [1], the Dmax is greater than 75% and the DC50 fell in the range of 1 to 10 nM. For the same molecule, in experiment [2], the greatest degradation seen (Dmax) was greater than 75% and the DC50 is 1 to 10 nM.

For the molecule `C[C@@H]1CNc2c(sc3ccc4nc(-c5ccc(N6CCN(CCOc7ccc8c(c7)n(C)c(=O)n8C7CCC(=O)NC7=O)CC6)cc5)ccc4c23)C(=O)N1` (some centres unmarked) [Compound I-215], in experiment [1], the Dmax lay within 50 to 75% and the “MK2 MSD THP-1 degradation 24 h GMean External Abs DC50” value was “—”. Also, in experiment [2], the Dmax was greater than 75% and the half-maximal degradation concentration (DC50) is less than 1 nM.

Regarding `C[C@@H]1CNc2c(sc3ccc4nc(-c5ccc(N6CCN(C[C@H]7C[C@H](c8ccc9c(c8)n(C)c(=O)n9C8CCC(=O)NC8=O)C7)CC6)cc5)ccc4c23)C(=O)N1` (some centres unmarked) [Compound I-222], in experiment [1], the Dmax was greater than 75% and the half-maximal degradation concentration (DC50) is less than 1 nM. Further, in experiment [2], the Dmax was greater than 75% and the half-maximal degradation concentration (DC50) was less than 1 nM.

In the case of `Cc1cc(N2CCN(CC3CCN(c4ccc5c(c4)n(C)c(=O)n5C4CCC(=O)NC4=O)CC3)CC2)ccc1-c1cc(-c2cc3c([nH]2)C2(CC2)CNC3=O)ccn1` (centres unmarked) [Compound I-217], in experiment [1], the maximal degradation (Dmax) is less than 50% and the 50% degradation concentration (DC50) is greater than 100 nM. Also, in experiment [2], the greatest degradation seen (Dmax) is less than 50% and the half-maximal degradation concentration (DC50) was greater than 100 nM.

Consider `C[C@@H]1CNc2c(sc3ccc4nc(-c5ccc(CNC(=O)COCCOCCOCCOCCc6cccc7c6n(C)c(=O)n7C6CCC(=O)NC6=O)cc5)ccc4c23)C(=O)N1` (some centres unmarked) [Compound I-92], for which, in experiment [1], the Dmax was greater than 75% and the DC50 lay within 1 to 10 nM. In experiment [2], the Dmax was greater than 75% and the half-maximal degradation concentration (DC50) lay in the range of 1 to 10 nM.

On to `Cn1c(=O)n(C2CCC(=O)NC2=O)c2cccc(N3CC(CN4CCN(c5ccc(-c6cc(-c7cc8c([nH]7)C7(CC7)CNC8=O)ccn6)cc5)CC4)C3)c21` (centres unmarked) [Compound I-190], for which the Dmax in experiment [1] and in experiment [2] was greater than 75% throughout. Besides, the 50% degradation concentration (DC50) in experiment [1] and in experiment [2] was less than 1 nM in each case.

With `C[C@@H]1CNc2c(sc3ccc4nc(-c5cnc(N6CCC(CN7CCN(c8ccc9c(c8)n(C)c(=O)n9C8CCC(=O)NC8=O)CC7)CC6)nc5)ccc4c23)C(=O)N1` (some centres unmarked) [Compound I-271], in experiment [1], the Dmax was greater than 75% and the 50% degradation concentration (DC50) is less than 1 nM. Moreover, in experiment [2], the maximal degradation (Dmax) was greater than 75% and the DC50 was less than 1 nM.

Take `Cn1c(=O)n(C2CCC(=O)NC2=O)c2cccc(CCCCCCN3CC4(CCN(c5ccc6c(c5)Cn5cc(-c7ccc(F)cc7)cc5-c5nccn5-6)C4)C3)c21` (centres unmarked) [Compound I-257]: in experiment [1], the maximal degradation (Dmax) was less than 50% and the 50% degradation concentration (DC50) was greater than 100 nM. Further, in experiment [2], the Dmax is less than 50% and the DC50 is greater than 100 nM.

For `Cn1c(=O)n(C2CCC(=O)NC2=O)c2ccc(N3CCC(CN4CCN(c5ccc(-c6nccc(-c7cc8c([nH]7)CCNC8=O)n6)cc5)CC4)CC3)cc21` (centres unmarked) [Compound I-427], the greatest degradation seen (Dmax) in experiment [1] and in experiment [2] was greater than 75% in each case. Moreover, the 50% degradation concentration (DC50) in experiment [1] and in experiment [2] was less than 1 nM each time.
